{
  "source": "patent US10766882B2",
  "about": "“1,2-naphthoquinone based derivative and method of preparing the same” (YUNGJIN PHARM. CO., LTD., priority 2013, dated 2020)",
  "biological_target": "NQO1 protein (Homo sapiens, UniProt P15559)",
  "sequence (P15559 whole entry, species assumed)": "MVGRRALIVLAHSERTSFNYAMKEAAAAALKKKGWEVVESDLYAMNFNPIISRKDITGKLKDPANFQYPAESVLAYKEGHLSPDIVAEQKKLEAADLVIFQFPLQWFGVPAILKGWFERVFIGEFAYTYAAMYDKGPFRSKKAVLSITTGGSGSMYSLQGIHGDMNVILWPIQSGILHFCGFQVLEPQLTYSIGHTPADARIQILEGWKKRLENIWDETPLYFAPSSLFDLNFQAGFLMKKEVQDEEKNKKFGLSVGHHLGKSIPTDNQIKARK",
  "test": "NQO1 activity measurement (cytochrome C reduction)",
  "format": "biochemical",
  "conditions": "5 ng NQO1 protein, 200 μM NADH, 77 μM cytochrome C, 37° C., absorbance 550 nm for 10 minutes",
  "method": "An enzyme reaction solution included 25 mM Tris/HCl (pH 7.4), 0.14% bovine serum albumin, 200 μM NADH, 77 μM cytochrome C, and 5 ng of NQO1 protein. Enzymatic reaction was initiated by adding NADH and performed at 37° C. In this regard, a reaction rate was measured by observing absorbance, which was increased due to reduction of cytochrome C, at 550 nm for 10 minutes and NQO1 activity was represented as an amount of reduced cytochrome C [nmol cytochrome C reduced/min/μg protein].\nExtinction coefficient for cytochrome C:21.1 mmol/L/cm=21.1 μmol/ml/cm",
  "data": [
    {"smiles": "CC(C)c1nc2c(n1Cc1ccccn1)C(=O)C(=O)c1ccccc1-2", "note": "[Example 84]", "values": [
      {"measurement": "NQO1 activity (5 μM, [nmol cytochrome C reduced/min/μg protein])", "result": "172.0 nmol cytochrome C reduced/min/μg protein"}
    ]},
    {"smiles": "Cc1cc(F)ccc1NCc1nc2c([nH]1)C(=O)C(=O)c1ccccc1-2", "note": "[Example 53]", "values": [
      {"measurement": "NQO1 activity (5 μM, [nmol cytochrome C reduced/min/μg protein])", "result": "112.6 nmol cytochrome C reduced/min/μg protein"}
    ]},
    {"smiles": "Cc1cc(F)ccc1N(Cc1nc2c([nH]1)C(=O)C(=O)c1ccccc1-2)C(=O)OC(C)(C)C", "note": "[Example 52]", "values": [
      {"measurement": "NQO1 activity (5 μM, [nmol cytochrome C reduced/min/μg protein])", "result": "60.3 nmol cytochrome C reduced/min/μg protein"}
    ]},
    {"smiles": "CCC(CC)c1nc2c([nH]1)C(=O)C(=O)c1ccccc1-2", "note": "[Example 77]", "values": [
      {"measurement": "NQO1 activity (5 μM, [nmol cytochrome C reduced/min/μg protein])", "result": "223.3 nmol cytochrome C reduced/min/μg protein"}
    ]},
    {"smiles": "CC(c1nc2c([nH]1)C(=O)C(=O)c1ccccc1-2)N(C)C", "note": "(stereo not drawn) [Example 60]", "values": [
      {"measurement": "NQO1 activity (5 μM, [nmol cytochrome C reduced/min/μg protein])", "result": "140.1 nmol cytochrome C reduced/min/μg protein"}
    ]},
    {"smiles": "CN1CCN(c2nc3c([nH]2)C(=O)C(=O)c2ccccc2-3)CC1", "note": "[Example 75, 2-(4-methylpiperazin-1-yl)-3H-naphtho[2,1-d]imidazole-4,5-dione]", "values": [
      {"measurement": "NQO1 activity (5 μM, [nmol cytochrome C reduced/min/μg protein])", "result": "26.9 nmol cytochrome C reduced/min/μg protein"}
    ]},
    {"smiles": "Cn1c(COc2ccc(F)cc2)nc2c1C(=O)C(=O)c1ccccc1-2", "note": "[Example 80]", "values": [
      {"measurement": "NQO1 activity (5 μM, [nmol cytochrome C reduced/min/μg protein])", "result": "162.6 nmol cytochrome C reduced/min/μg protein"}
    ]},
    {"smiles": "CCOc1nc2c(n1C)C(=O)C(=O)c1ccccc1-2", "note": "[Example 74]", "values": [
      {"measurement": "NQO1 activity (5 μM, [nmol cytochrome C reduced/min/μg protein])", "result": "193.5 nmol cytochrome C reduced/min/μg protein"}
    ]},
    {"smiles": "CC(c1nc2c([nH]1)C(=O)C(=O)c1ccccc1-2)N1CCOCC1", "note": "(stereo not drawn) [Example 61]", "values": [
      {"measurement": "NQO1 activity (5 μM, [nmol cytochrome C reduced/min/μg protein])", "result": "204.1 nmol cytochrome C reduced/min/μg protein"}
    ]},
    {"smiles": "CCc1nc2c(n1CC)C(=O)C(=O)c1cc(F)ccc1-2", "note": "[Example 88]", "values": [
      {"measurement": "NQO1 activity (5 μM, [nmol cytochrome C reduced/min/μg protein])", "result": "187.4 nmol cytochrome C reduced/min/μg protein"}
    ]},
    {"smiles": "CC(C)c1nc2c(n1C(C)C)C(=O)C(=O)c1ccccc1-2", "note": "[Example 85]", "values": [
      {"measurement": "NQO1 activity (5 μM, [nmol cytochrome C reduced/min/μg protein])", "result": "135.4 nmol cytochrome C reduced/min/μg protein"}
    ]},
    {"smiles": "CC(C)c1nc2c(n1CCN(C)C)C(=O)C(=O)c1ccccc1-2", "note": "[Example 72]", "values": [
      {"measurement": "NQO1 activity (5 μM, [nmol cytochrome C reduced/min/μg protein])", "result": "51.0 nmol cytochrome C reduced/min/μg protein"}
    ]},
    {"smiles": "CCc1nc2c(n1CC)C(=O)C(=O)c1ccccc1-2", "note": "[Example 86]", "values": [
      {"measurement": "NQO1 activity (5 μM, [nmol cytochrome C reduced/min/μg protein])", "result": "220.0 nmol cytochrome C reduced/min/μg protein"}
    ]},
    {"smiles": "CCc1nc2c(n1C(C)C)C(=O)C(=O)c1ccccc1-2", "note": "[Example 90]", "values": [
      {"measurement": "NQO1 activity (5 μM, [nmol cytochrome C reduced/min/μg protein])", "result": "241.3 nmol cytochrome C reduced/min/μg protein"}
    ]},
    {"smiles": "CC(C)(O)c1nc2c([nH]1)C(=O)C(=O)c1ccccc1-2", "note": "[Example 76]", "values": [
      {"measurement": "NQO1 activity (5 μM, [nmol cytochrome C reduced/min/μg protein])", "result": "183.5 nmol cytochrome C reduced/min/μg protein"}
    ]},
    {"smiles": "CN(Cc1nc2c([nH]1)C(=O)C(=O)c1ccccc1-2)c1ccccc1", "note": "[Example 51, 2-((methyl (phenyl)amino)methyl)-3H-naphtho[2,1-d]imidazole-4,5-dione]", "values": [
      {"measurement": "NQO1 activity (5 μM, [nmol cytochrome C reduced/min/μg protein])", "result": "140.8 nmol cytochrome C reduced/min/μg protein"}
    ]},
    {"smiles": "O=C1C(=O)c2[nH]c(-c3nc4c([nH]3)C(=O)C(=O)c3ccccc3-4)nc2-c2ccccc21", "note": "[Example 92]", "values": [
      {"measurement": "NQO1 activity (5 μM, [nmol cytochrome C reduced/min/μg protein])", "result": "186.8 nmol cytochrome C reduced/min/μg protein"}
    ]},
    {"smiles": "O=C1C(=O)c2[nH]c(COc3ccc(F)cc3)nc2-c2ccccc21", "note": "[Example 79]", "values": [
      {"measurement": "NQO1 activity (5 μM, [nmol cytochrome C reduced/min/μg protein])", "result": "96.9 nmol cytochrome C reduced/min/μg protein"}
    ]},
    {"smiles": "Cc1cc(F)ccc1OCc1nc2c([nH]1)C(=O)C(=O)c1ccccc1-2", "note": "[Example 50]", "values": [
      {"measurement": "NQO1 activity (5 μM, [nmol cytochrome C reduced/min/μg protein])", "result": "100.6 nmol cytochrome C reduced/min/μg protein"}
    ]},
    {"smiles": "CC(C)c1nc2c(n1CCO)C(=O)C(=O)c1ccccc1-2", "note": "[Example 68, 3-(2-hydroxyethyl)-2-isopropyl-3H-naphtho[2,1-d]imidazole-4,5-dione]", "values": [
      {"measurement": "NQO1 activity (5 μM, [nmol cytochrome C reduced/min/μg protein])", "result": "143.0 nmol cytochrome C reduced/min/μg protein"}
    ]},
    {"smiles": "CC(c1nc2c([nH]1)C(=O)C(=O)c1ccccc1-2)N1CCCC1", "note": "(stereo not drawn) [Example 65]", "values": [
      {"measurement": "NQO1 activity (5 μM, [nmol cytochrome C reduced/min/μg protein])", "result": "93.5 nmol cytochrome C reduced/min/μg protein"}
    ]},
    {"smiles": "CC(C)c1nc2c(n1CCN1CCOCC1)C(=O)C(=O)c1ccccc1-2", "note": "[Example 66]", "values": [
      {"measurement": "NQO1 activity (5 μM, [nmol cytochrome C reduced/min/μg protein])", "result": "56.0 nmol cytochrome C reduced/min/μg protein"}
    ]},
    {"smiles": "O=C1C(=O)c2[nH]c(-c3cccnc3)nc2-c2ccccc21", "note": "[Example 87]", "values": [
      {"measurement": "NQO1 activity (5 μM, [nmol cytochrome C reduced/min/μg protein])", "result": "94.7 nmol cytochrome C reduced/min/μg protein"}
    ]},
    {"smiles": "O=C1C(=O)c2[nH]c(C3CCCO3)nc2-c2ccccc21", "note": "(stereo not drawn) [Example 73]", "values": [
      {"measurement": "NQO1 activity (5 μM, [nmol cytochrome C reduced/min/μg protein])", "result": "180.8 nmol cytochrome C reduced/min/μg protein"}
    ]},
    {"smiles": "O=C1C(=O)c2[nH]c(Cl)nc2-c2ccccc21", "note": "[Example 70, 2-chloro-3H-naphtho[2,1-d]imidazole-4,5-dione]", "values": [
      {"measurement": "NQO1 activity (5 μM, [nmol cytochrome C reduced/min/μg protein])", "result": "83.9 nmol cytochrome C reduced/min/μg protein"}
    ]},
    {"smiles": "O=C1C(=O)c2[nH]c(N3CCCC3)nc2-c2ccccc21", "note": "[Example 63, 2-(pyrrolidin-1-yl)-3H-naphtho[2,1-d]imidazole-4,5-dione]", "values": [
      {"measurement": "NQO1 activity (5 μM, [nmol cytochrome C reduced/min/μg protein])", "result": "40.3 nmol cytochrome C reduced/min/μg protein"}
    ]},
    {"smiles": "CCOc1nc2c([nH]1)C(=O)C(=O)c1ccccc1-2", "note": "[Example 71]", "values": [
      {"measurement": "NQO1 activity (5 μM, [nmol cytochrome C reduced/min/μg protein])", "result": "124.7 nmol cytochrome C reduced/min/μg protein"}
    ]},
    {"smiles": "CN(C)Cc1nc2c([nH]1)C(=O)C(=O)c1ccccc1-2", "note": "[Example 59]", "values": [
      {"measurement": "NQO1 activity (5 μM, [nmol cytochrome C reduced/min/μg protein])", "result": "149.3 nmol cytochrome C reduced/min/μg protein"}
    ]},
    {"smiles": "CC(C)c1nc2c(n1Cc1cccnc1)C(=O)C(=O)c1ccccc1-2", "note": "[Example 83]", "values": [
      {"measurement": "NQO1 activity (5 μM, [nmol cytochrome C reduced/min/μg protein])", "result": "162.5 nmol cytochrome C reduced/min/μg protein"}
    ]},
    {"smiles": "CC(C)c1nc2c(n1CCCl)C(=O)C(=O)c1ccccc1-2", "note": "[Example 64]", "values": [
      {"measurement": "NQO1 activity (5 μM, [nmol cytochrome C reduced/min/μg protein])", "result": "189.5 nmol cytochrome C reduced/min/μg protein"}
    ]},
    {"smiles": "CC(O)c1nc2c(n1C(C)C)C(=O)C(=O)c1ccccc1-2", "note": "(stereo not drawn) [Example 91]", "values": [
      {"measurement": "NQO1 activity (5 μM, [nmol cytochrome C reduced/min/μg protein])", "result": "206.9 nmol cytochrome C reduced/min/μg protein"}
    ]},
    {"smiles": "CCc1nc2c(n1C(C)C)C(=O)C(=O)c1cc(F)ccc1-2", "note": "[Example 89]", "values": [
      {"measurement": "NQO1 activity (5 μM, [nmol cytochrome C reduced/min/μg protein])", "result": "145.0 nmol cytochrome C reduced/min/μg protein"}
    ]},
    {"smiles": "CC(C)c1nc2c([nH]1)C(=O)C(=O)c1cc(NC(=O)C3CC3)ccc1-2", "note": "[Example 20]", "values": [
      {"measurement": "NQO1 activity (5 μM, [nmol cytochrome C reduced/min/μg protein])", "result": "6.4 nmol cytochrome C reduced/min/μg protein"}
    ]},
    {"smiles": "CC(C)c1nc2c(n1Cn1c(C(C)C)nc3c1C(=O)C(=O)c1ccccc1-3)C(=O)C(=O)c1ccccc1-2", "note": "[Example 69]", "values": [
      {"measurement": "NQO1 activity (5 μM, [nmol cytochrome C reduced/min/μg protein])", "result": "160.5 nmol cytochrome C reduced/min/μg protein"}
    ]},
    {"smiles": "CC(F)(F)c1nc2c([nH]1)C(=O)C(=O)c1ccccc1-2", "note": "[Example 82]", "values": [
      {"measurement": "NQO1 activity (5 μM, [nmol cytochrome C reduced/min/μg protein])", "result": "70.2 nmol cytochrome C reduced/min/μg protein"}
    ]},
    {"smiles": "CN(C)c1nc2c([nH]1)C(=O)C(=O)c1ccccc1-2", "note": "[Example 62, 2-(dimethylamino)-3H-naphtho[2,1-d]imidazole-4,5-dione]", "values": [
      {"measurement": "NQO1 activity (5 μM, [nmol cytochrome C reduced/min/μg protein])", "result": "113.3 nmol cytochrome C reduced/min/μg protein"}
    ]},
    {"smiles": "CC(C)c1nc2c(n1Cc1ccncc1)C(=O)C(=O)c1ccccc1-2", "note": "[Example 81]", "values": [
      {"measurement": "NQO1 activity (5 μM, [nmol cytochrome C reduced/min/μg protein])", "result": "169.4 nmol cytochrome C reduced/min/μg protein"}
    ]},
    {"smiles": "O=C1C(=O)c2[nH]c(N3CCOCC3)nc2-c2ccccc21", "note": "[Example 67, 2-morpholino-3H-naphtho[2,1-d]imidazole-4,5-dione]", "values": [
      {"measurement": "NQO1 activity (5 μM, [nmol cytochrome C reduced/min/μg protein])", "result": "143.1 nmol cytochrome C reduced/min/μg protein"}
    ]},
    {"smiles": "O=C1C(=O)c2[nH]c(CCc3ccc(F)cc3)nc2-c2ccccc21", "note": "[Example 54]", "values": [
      {"measurement": "NQO1 activity (5 μM, [nmol cytochrome C reduced/min/μg protein])", "result": "126.9 nmol cytochrome C reduced/min/μg protein"}
    ]}
  ]
}
